Laboratory results taken from patent publication US9682060B2, “Small molecules that induce intrinsic pathway apoptosis” (The Board of Trustees of the University of Illinois, priority 2015, dated 2017).
Entries after “also recorded” stand apart in the source; their conditions may differ. Where two headings read alike, the source gives them in different places. Starred links: 1 amine or outer side, 2 acyl side, 3 side chain; linkers in the order of their positions; H or OH if unused. Positions of bridges follow the written chain, without caps; N, C: chain ends. Non-standard residues stand in square brackets, D forms with d. Residues, ends and D or L forms follow the SMILES beside them. Chains are numbered I, II in the order given. Actinocin(9to1) = Cc1c2oc3c(C)ccc(C(=O)[*:1])c3nc-2c(C(=O)[*:2])c(N)c1=O; NMeV = CN[C@H](C(=O)O)C(C)C; Sar = CNCC(=O)O

B1: Bid: known pro-apoptotic protein; full-length recombinant Bid from R&D Systems (protein, UniProt P55957 1-195, looked up)
chain: MDCEVNNGSSLRDECITNLLVFGFLQSCSDNSFRRELDALGHELPVLAPQWEGYDELQTDGNRSSHSRLGRIEADSESQEDIIRNIARHLAQVGDSMDRSIPPGLVNGLALQLRNTSRSEEDRNRDLATALEQLLQAYPRDMEKEKTMLVLALLLAKKVASHTPSLLRDVFHTTVNFINQNLRTYVRSLARNGMD
modifications: full-length
notes: known pro-apoptotic protein; full-length recombinant Bid from R&D Systems

Key:
U-937 cells [1] = assay: Annexin V/PI cell viability analysis
[2] = tested on: cancer cell lines (HL-60, SK-MEL-5, U-937); assay: Initial screens against cancer cell lines; format: cell-based, Human; conditions: cancer cells treated 1 hour, extensive washing to remove compound, read at 24-hour mark
U-937 cells [3] = assay: Protection assays using small molecule inhibitors (protection from Raptinal, AV/PI); format: cell-based, Human; conditions: U-937 cells pretreated 2 hours with agent (concentrations of Table 3), then 10 μM Raptinal 2 hours
Method: Protection Assays Using Small Molecule Inhibitors.
. The cells were then co-treated with Raptinal at 10 μM for 2 hours prior to analysis by propidium iodide/FITC-annexin V staining and flow cytometry.

[4] = tested on: adherent cell lines (HOS, H1993, SK-MEL-5, MIA PaCa-2); assay: Adherent cell lines: cell death by AV/PI staining and immunoblots; format: cell-based, Human; conditions: adherent cell lines; 10 μM (FIG. 1G)
U-937 cells [5] = format: cell-based, Human; conditions: 20 minute treatment, dihydroethidium, flow cytometry
Method: Measurement of Cellular ROS Production.
U-937 cells (1 mL of 5×10^5 cells/mL) in Hank's buffered salt solution (HBSS) containing 5 mM glucose were treated with DMSO, 2 or 10 μM Raptinal, 10 μM thapsigargin, 100 μM etoposide (1% DMSO final) and incubated in the presence of 5 μM dihydroethidium a 37° C., 5% CO2 incubator for 20 minutes. […]. The levels of ethidium were assessed by flow cytometry. Live cells were analyzed based on gating on the forward and side scatter properties and the geometric mean of ethidium staining was determined using the software FCS Express.

[6] = tested on: isolated mitochondria (U-937 cells); assay: In vitro cytochrome c release from isolated mitochondria; format: biochemical, Human; conditions: respiring and non-respiring conditions, 30 min, Western blot
Method: In Vitro Cytochrome c Release from Isolated Mitochondria.
U-937 cells (120×10^6) were washed twice in PBS and resuspended in 800 μL ice-cold lysis buffer (50 mM HEPES, 5 mM DTT, 5 mM PMSF, 25 mM MgCl2, protease cocktail inhibitor, pH 7.5) and the cells were passed through a 26 gauge needle 26 times using a 1 mL syringe until >95% cells were lysed as determined by trypan blue. Isolation buffer (0.25 M sucrose in lysis buffer pH 7.5) was added to the lysed cells (2.4 mL) and mixed by inversion. Debris was removed by centrifugation (500×g. 10 min at 4° C.) and the mitochondria in the supernatant were pelleted by centrifugation (10000×g, 5 min at 4° C.). The mitochondrial pellet was resuspended in washing buffer (2 mL of 50 mM HEPES, 250 mM KCl, 25 mM EDTA, pH 7.5) and incubated on ice for 2 min and centrifuged (12500×g, 5 min). The mitochondrial pellet was resuspended in either non-respiration (300 μL of 50 mM HEPES, 5 mM DTT, 5 mM PMSF, 25 mM MgCl2, protease inhibitor, 250 mM KCl, 25 mM EDTA, pH 7.5) or respiration buffer (300 μL of 50 mM HEPES, […], 5 mM ATP, 0.4 mM ADP, 25 mM sodium succinate, 10 mM potassium phosphate dibasic, pH 7.5). […]

[7] = U-937 cells, 10 μM, time course AV/PI, based on data in FIG. 1F

Row | Molecule | Time to 50% death (U-937 cells [1]; [7]) | protection from Raptinal-induced cell death (U-937 cells [3]) | further results
1 | N.N.[Cl][Pt][Cl] [Cisplatin, reference compound] | >36 h |  | cell death after short treatment and washout [2]: do not have a similar effect
2 | C=C(C)[C@H]1Cc2c(ccc3c2O[C@@H]2COc4cc(OC)c(OC)cc4[C@@H]2C3=O)O1 [Rotenone] | 20 h | significant to quantitative protection | 
3 | CC[C@@H]1/C=C/C=C/C[C@H](C)[C@H](O)[C@](C)(O)C(=O)[C@H](C)[C@@H](O)[C@H](C)C(=O)[C@H](C)[C@@H](O)[C@H](C)/C=C/C(=O)O[C@H]2[C@@H](C)[C@@H](CC1)O[C@@]1(CC[C@@H](C)[C@@H](C[C@H](C)O)O1)[C@@H]2C [oligomycin A] |  | significant to quantitative protection | 
4 | c1ccc(CN(CCN(Cc2ccccn2)Cc2ccccn2)Cc2ccccn2)nc1 [TPEN] | 12 h |  | 
5 | CO[C@@]12[C@H](COC(N)=O)C3=C(C(=O)C(C)=C(N)C3=O)N1C[C@@H]1N[C@@H]12 [Mitomycin C] | 20 h |  | 
6 | CN[C@@H]1C[C@H]2O[C@@](C)([C@@H]1OC)n1c3ccccc3c3c4c(c5c6ccccc6n2c5c31)C(=O)NC4 [Staurosporine] | 5 h |  | time of apoptotic death (U-937 cells [1]; U-937 cells, 10 μM (FIG. 1F)): 6 to 12 h; time of apoptotic death [4]: > 24 h
7 | COc1cc2c(c(OC)c1OC)-c1ccc(OC)c(=O)cc1[C@@H](NC(C)=O)CC2 [Colchicine] |  |  | Time to 50% death (U-937 cells [1]): 15 h
8 | O=C1C(=O)N(Cc2ccc(Cl)c(Cl)c2)c2ccccc21 [AA2] | >36 h |  | 
9 | Cc1c2oc3c(C)ccc(C(=O)N[C@@H]4C(=O)N[C@H](C(C)C)C(=O)N5CCC[C@H]5C(=O)N(C)CC(=O)N(C)[C@@H](C(C)C)C(=O)O[C@@H]4C)c3nc-2c(C(=O)N[C@@H]2C(=O)N[C@H](C(C)C)C(=O)N3CCC[C@H]3C(=O)N(C)CC(=O)N(C)[C@@H](C(C)C)C(=O)O[C@@H]2C)c(N)c1=O [actinomycin D] (I: T[dV]P[Sar][NMeV] / II: T[dV]P[Sar][NMeV]; ester I:1-I:C, II:1-II:C; linker I:N-II:N via Actinocin(9to1)) |  | did not prevent or delay Raptinal-induced apoptosis | 
10 | Antimycin A | >36 h | significant to quantitative protection | 
11 | Cc1cc2c(C(C)C)c(O)c(O)c(C=O)c2c(O)c1-c1c(C)cc2c(C(C)C)c(O)c(O)c(C=O)c2c1O [Gossypol] | 36 h |  | 
12 | N#CC(C#N)=NNc1ccc(OC(F)(F)F)cc1 [FCCP] |  | significant to quantitative protection | 
13 | CC[C@@]1(O)C(=O)OCc2c1cc1n(c2=O)Cc2cc3ccccc3nc2-1 [Camptothecin] | 5 h |  | 
14 | O=C(CC(=O)C(F)(F)F)c1cccs1 [TTFA] |  | did not confer significant protection | 
15 | O=S(=O)(O)c1cc(N=C=S)ccc1C=Cc1ccc(N=C=S)cc1S(=O)(=O)O [DIDS] |  | significant protection | 
16 | C[C@@H]1C[C@@H]([C@H](O)CC2CC(=O)NC(=O)C2)C(=O)[C@@H](C)C1 [cycloheximide] |  | did not prevent or delay Raptinal-induced apoptosis | 

Row | Molecule | Time to 50% death (U-937 cells [1]; [7]) | protection from Raptinal-induced cell death (U-937 cells [3]) | further results
17 | C=CCc1cccc(/C=N/NC(=O)CN2CCN(Cc3ccccc3)CC2)c1O [PAC-1] | >36 h |  | 
18 | CC(=O)O[C@H]1C(=O)[C@@]2(C)[C@H]([C@H](OC(=O)c3ccccc3)[C@]3(O)C[C@H](OC(=O)[C@H](O)[C@@H](NC(=O)c4ccccc4)c4ccccc4)C(C)=C1C3(C)C)[C@]1(OC(C)=O)CO[C@@H]1C[C@@H]2O [Paclitaxel, reference compound] | 18 h |  | cell death after short treatment and washout [2]: do not have a similar effect
19 | CC(C)[C@H](NC(=O)c1ccc2ccccc2n1)C(=O)N[C@@H](CC(=O)O)C(=O)COc1c(F)cccc1F [Q-VD-OPh] |  | quantitatively blocked the loss in cell viability | 
20 | CN(NC(=O)CC(=O)NN(C)C(=S)c1ccccc1)C(=S)c1ccccc1 [Elesclomol] | >36 h |  | 
21 | C/C=C(/C)C(=O)O[C@H]1C(C)=C2[C@H]([C@@H]1OC(=O)CCCCCCC)[C@@](C)(OC(C)=O)C[C@H](OC(=O)CCC)[C@@]1(O)[C@H]2OC(=O)[C@@]1(C)O [Thapsigargin, reference compound] | 14 h |  | production of reactive oxygen species (superoxide anion radicals) (U-937 cells [5]): rapid accumulation of superoxide anion radicals
22 | CC[C@]1(O)C[C@H]2CN(CCc3c([nH]c4ccccc34)[C@@](C(=O)OC)(c3cc4c(cc3OC)N(C=O)[C@H]3[C@@](O)(C(=O)OC)[C@H](OC(C)=O)[C@]5(CC)C=CCN6CC[C@]43[C@@H]65)C2)C1 [Vincristine] | 14 h |  | 
23 | COc1cccc2c1C(=O)c1c(O)c3c(c(O)c1C2=O)C[C@@](O)(C(=O)CO)C[C@@H]3O[C@H]1C[C@H](N)[C@H](O)[C@H](C)O1 [Doxorubicin] | 6 h |  | 
24 | COc1[nH]c(=O)c(C(=O)[C@@H](C)C[C@H](C)[C@@H](Cl)CCl)c(O)c1OC [atpenin A5] |  | did not confer significant protection | 
25 | Tunicamycin | 24 h |  | 
26 | CO[C@H]1C[C@@H]2CC[C@@H](C)[C@@](O)(O2)C(=O)C(=O)N2CCCC[C@H]2C(=O)O[C@H]([C@H](C)C[C@@H]2CC[C@@H](O)[C@H](OC)C2)CC(=O)[C@H](C)/C=C(\C)[C@@H](O)[C@@H](OC)C(=O)[C@H](C)C[C@H](C)/C=C/C=C/C=C/1C [Rapamycin] | >36 h |  | 
27 | COC1=C2C[C@@H](C)C[C@H](OC)[C@H](O)[C@@H](C)/C=C(\C)[C@H](OC(N)=O)[C@@H](OC)/C=C\C=C(/C)C(=O)NC(=CC1=O)C2=O [Geldanamycin] | >36 h |  | 
28 | CCOC(=O)C1=C(N)Oc2ccc(Br)cc2C1C(C#N)C(=O)OCC (stereo not shown) [HA-141] | >36 h |  | 
29 | CN[C@@H](C)C(=O)N[C@H]1CCCC[C@H]2CC[C@@H](C(=O)N[C@@H](c3ccccc3)c3cn(CCCCc4ccc(CCCCn5cc([C@@H](NC(=O)[C@@H]6CC[C@@H]7CCCC[C@H](NC(=O)[C@H](C)NC)C(=O)N76)c6ccccc6)nn5)cc4)nn3)N2C1=O [SM-164] | >36 h |  | 
30 | COc1cc([C@@H]2c3cc4c(cc3[C@@H](O[C@@H]3O[C@@H]5CO[C@@H](C)O[C@H]5[C@H](O)[C@H]3O)[C@H]3COC(=O)[C@H]23)OCO4)cc(OC)c1O [Etoposide, reference compound] | 5 h |  | production of reactive oxygen species (superoxide anion radicals) (U-937 cells [5]): not
31 | Cc1cc(=O)[nH]c2c1C(=O)c1c(C)cc(=O)n(C)c1C2=O [DNQ] | 6 h |  | 
32 | B1 |  |  | cytochrome c release from isolated mitochondria [6]: able to induce cytochrome c release; also recorded: capable of releasing cytochrome c under both conditions
